Measured values from patent publication US10478464B2, “Compositions and methods of use” (priority 2009, dated 2019).

Columns and labels:
[1] = test system: PLC5 cells a Hepatocellular Carcinoma cell line; test: Liver xenograft mouse model (PLC5); type: in vivo, BALB/c nu/nu mice
Description: The purpose of this study was to determine anti tumor efficacy of 8-HHA in liver cancer using PLC5 cells a Hepatocellular Carcinoma cell line. The tumor growth and animal survival were considered as primary end point.
Animals and care: Thirty BABL/c nude, non-pregnant and nulliparous female mice that are 5-6 weeks old and weighing 16-20 gms were used in this study. BALB/c nu/nu mice were used because they have been historically used in xenograft studies to test anti-tumor efficacy of drug candidates. Mice were acclimatized for minimum 5 days, under same conditions as for the actual test. Mice were housed at room temperature 68±5° F. with room Relative Humidity of 30-70%, air Exchanges per Hour of a minimum of 10 changes per hour, lights exposure of 12-hour light/dark cycle, full spectrum fluorescent lights. The mice were housed in groups in ventilated micro-isolator cages made up of polycarbonate. The mice were using autoclaved laboratory grade bedding and were provided ad libitum with irradiated pellets and autoclaved water. There were no known contaminants present in the feed, water, or bedding expected to interfere with the test data. The laboratory and animal rooms were maintained as limited-access facilities.
Route of injection and dose: 8-HHA was administered through intraperitoneal (IP) injection. […] For this study, 2 doses-10 mg/kg and 100 mg/kg were used.
Tumor Induction: The cell line PLC5 were cultured according to recommended specifications at Vanas Oncology, in which cells were grown and maintained in RPMI medium containing 10% fetal bovine serum, 2 mM L-Glutamine, 100 units/ml of Streptomycin and 100 units/ml of Penicilin. Cells were trypizinized and counted using the Trypan-blue viability test using a hemocytometer. Cell counts in quadrants of the hemocytometer were converted to a cells/mL value, which will enable isolation of the appropriate number of cells per mouse. Each mouse was inoculated subcutaneously in the right flank region with 0.2 mL of a 50% RPMI/50% Matrigel™ mixture containing a suspension of tumor cells (5×10^6 cells/mouse). Tumors were observed twice weekly until well established. Tumor volume was calculated using the formula: Tumor weight (mg)=(a×b^2/2) where ‘b’ is the smallest diameter and ‘a’ is the largest diameter in millimeters.
Allocation of Animals: Once the established tumors reach a mean calculated volume of approximately 50-100 mg, the mice were randomized, using appropriate software, into treatment groups in order to reduce the variability of tumor sizes per group.
Pre Dose Procedure: Acclimated animals were weighed and observed for clinical signs of toxicity prior to dosing on Day 1.
The first day of dosing is Day 1. On Day 1,8-HHA, and vehicle injections were administered according to the study design in Table 7 below.
Post Dose Procedure: Following treatment, tumor and mouse body weight measurements were recorded twice weekly and gross observation was made at least once daily. Mice with tumors that are not palpable was considered complete regressions. Percentage of mice mortality and time of death will be recorded for every group in the study. Animals may be defined as moribund and sacrificed if one or more of the following criteria are met: • Loss of body weight of 20% or greater in a 1 week period. • Mice that inhibit normal physiological function such as eating, drinking, mobility, and ability to urinate and/or defecate. • Tumors that exceed a maximum size of 2000 mg as measured by calipers. • Ulcerated tumors, or tumors that bleed or produce exudates. • Prolonged, excessive diarrhea leading to excessive weight loss (>20%). • Persistent wheezing and respiratory distress. • Prolonged or excessive pain or distress as defined by clinical observations such as: prostration, hunched posture, paralysis/paresis, distended abdomen, ulcerations, abscesses, seizures, and/or hemorrhages.

[2] = test system: colorectal cancer cell lines (HCT-116, HCT-15, KM12); test: NCI 60 human tumor cell line screen (MTT), colorectal lines; conditions: 10 μM; three out of 7 lines
Experimental: (§2) The screening is a microplate cytotoxicity assays based on a simple colorimetric (MTT) assay which relies on the metabolic reduction of a tetrazolium dye in viable cells to a colored formazan product. A modified protocol was used for the screening of the compound and measures the inhibition of growth of various tumor cell lines. The 8-HHA tested in this assay was at the concentration of 10 μM.

[3] = test system: Hep3B liver cancer cell line; test: Cell survival, colorimetric MTT assay, Hep3B; type: cell-based; conditions: 100 μM, 72 hours
Experimental: (§1) 2) Against the liver cancer cell lines: The effect of the racemic mixture of 8-HHA and that of the individual enantiomers, namely S and R enantiomers, were examined on survival of PLC/PRF/5 (also referred to as “PLC-5” or “PLC5”), Hep3B and SNU449 (also referred to as “SNU”) liver cancer cell lines. The cell viability was examined in the exponential growth phase with 100 μM of 8-HHA for 72 hours using colorimetric MTT assay. In separate assays, PLC-5 cells were treated with different concentrations of S-enantiomer of 8-HHA ranging from 20-100 μM for 72 hours.

[4] = Water solubility (statement); type: physicochemical
[5] = test system: non-small cell lung cancer cell lines (HOP-92, NCI-H460); test: NCI 60 human tumor cell line screen (MTT), non-small cell lung cancer lines; conditions: 10 μM
Experimental: as §2

[6] = test system: leukemia cell lines (CCRF-CEM, K-562, SR, MOLT-4, RPMI-8226, HL-60(TB)); test: NCI 60 human tumor cell line screen (MTT), leukemia lines; type: cell-based; conditions: 10 μM
[7] = test system: SNU449 liver cancer cell line; test: Cell survival, colorimetric MTT assay, SNU449; type: cell-based; conditions: 100 μM, 72 hours
Experimental: as §1

[8] = test system: HOP-92 lung cancer cell lines; test: Cell survival, colorimetric MTT assay, HOP-92; type: cell-based, human; conditions: 100 μM, 72 hours
Experimental: 1) Against the lung cancer cell lines: The effect of the racemic mixture of 8-HHA and that of the individual enantiomers, namely S and R enantiomers, were examined on the survival of HOP-92 lung cancer cell lines. The cell viability was examined in the exponential growth phase with 100 μM of 8-HHA for 72 hours using colorimetric MTT assay. In separate assays, HOP-92 cells were treated with different concentrations of the S-enantiomer of 8-HHA ranging from 20-100 μM for 72 hours.

[9] = Maximal tolerated dose (MTD), single IV bolus; type: in vivo
Experimental: The purpose of this study was to determine the maximum tolerated dose of 8-HHA following intravenous (IV) administration in ICR mice. A racemic mixture of 8-HHA, placebo, and vehicle were administered to 20 ICR female mice with weight of 25-30 grams, respectively. The 8-HHA was formulated in nanolipid at concentration of 0, 10, 20 and 40 mg/ml. There were 4 animals per group and they were injected with 0, 10, 20 and 40 mg/kg dose of 8-HHA Mice were given a single bolus dose via the tail vein according to group assignment. One week after dosing mice were sacrificed. Daily clinical observations were performed 15 minutes and 1 hour post dose. The mice were observed daily for any adverse effects until necropsy on study day 8. Body weights were recorded for all the mice prior to test substance administration, and every other day throughout the test period. This entire study was performed at Toxikon Corporation, Bedford, Mass.

## CCCCCCCCC(O)CCCCCCC(=O)O (racemic) [Sample 8-HHA, 8-hydroxy-palmitic acid]
[1]; T1 10 mg/Kg, day 4
  tumor volume decrease compared to the control group: 44.5%
[1]; T1 10 mg/Kg, day 9
  tumor volume decrease compared to the control group: 49.8%
[1]; T1 10 mg/Kg, day 11
  tumor volume decrease compared to the control group: 72.3%
[1]; T1 10 mg/Kg, day 16
  tumor volume decrease compared to the control group: 77.7%
[1]; T1 10 mg/Kg, day 18
  tumor volume decrease compared to the control group: 78.4%
[1]; T2 100 mg/Kg, day 4
  tumor volume decrease compared to the control group: 56.3%
[1]; T2 100 mg/Kg, day 9
  tumor volume decrease compared to the control group: 61.1%
[1]; T2 100 mg/Kg, day 11
  tumor volume decrease compared to the control group: 81.1%
[1]; T2 100 mg/Kg, day 16
  tumor volume decrease compared to the control group: 87.9%
[1]; T2 100 mg/Kg, day 18
  tumor volume decrease compared to the control group: 88.3%
[1]; both T1 (10 mg/Kg) and T2 (100 mg/Kg)
  tumor growth inhibition, in words: significantly inhibited tumor growth in mice from day 4
[2]
  growth suppression of colorectal cancer cell lines, in words: moderate evidence of growth suppression
[3]
  reduced the survival of Hep3B cell line by: 25%
[4]
  water solubility: poorly water soluble
[5]
  inhibition of growth on non-small cell lung cancer cell lines, in words: remarkable inhibition of growth
[6]
  suppressed growth of leukemia cell lines: 40-96%
[7]
  effect on survival of SNU cell line: no major effect
[8]
  reduced the survival of HOP92 cell lines by: 25%
[9]; 10 mg/kg and 20 mg/kg IV
  tolerability / clinical abnormalities: did not demonstrate any clinical abnormalities
[9]; high dose 40 mg/kg IV, 4 animals per group
  mice that died shortly after being dosed: Two
[9]; mouse, in vivo, ICR female mice, single IV bolus, nanolipid formulation, read-out: maximum tolerated dose
  MTD at 8 days: 20 mg/kg
[9]; single IV bolus
  body weight at day 6 and 8: did not vary from pre dose weight
